No end group written: not given here.
The sequences below were run on mAbs H44/24, H44/58, H44/70, H44/78, 4BE12C10 (assay: ELISA test for the peptide-on-phage mAb interaction). Settings: peptide-on-phage coated at 5×10^11 particules/ml; positives tested a second time.
Format: binding, mouse
Protocol: To assess the binding of the mAbs to the numerous peptides-on-phage, all clones have been produced independently using the following protocol.
A preculture of E. coli DH11S infected with the phage was grown overnight. A sample of this preculture was used to inoculate a new 50 ml culture with a starting OD600nm of 0.050. This culture was grown up to an OD600nm of 0.20 to 0.25 with vigorous shaking at 37° C. The culture was then slowed down for 15 minutes in order to allow the regeneration of pili. M13K07 helper phage was added at an MOI of 20, and superinfection was allowed for 15 more minutes at 37° C. with slow agitation. IPTG (1 mM final concentration) was then added and the culture was grown for 5 hours with vigorous agitation.
A colony of K91kan containing the clone of interest (on a LB Tet plate) was added to 50 ml of LB supplemented with 20 μg/ml tetracycline and grown overnight at 37° C. with strong agitation.
Culture was centrifuged for 15 minutes at 4000RPM; 0.15 volume of PEG-NaCl solution was added to the supernatant for precipitating the phage and kept overnight at 4° C. Phage were collected by centrifugation, 45 minutes at 4000RPM. After being resuspended in TBS, phage were heated 15 minutes at 65° C. to kill remaining bacteria and to denature soluble proteins present in the sample. The solution was then centrifuged and the pellet was discarded. Phage in the supernatant were then precipitated again as indicated above. Phage were finally resuspended in 200 μl of TBS. Concentration of phage particules was determined by measuring the ΔOD at 269 nm-320 nm.
(§1) Phages were coated at 5×10^11 particules/ml on MaxiSorp multiwell plates. Coating was performed overnight at 4° C. with 100 μl/well. Plates were saturated with 5% (v/v) skimmed milk in TBS for 2 hours at 37° C. and washed 5 times with TBS-Tween20 0.05% (v/v). The mAbs were then incubated in the coated wells for 1 hour at 37° C., washed 5 times, and GAM-HRP conjugate (1500-fold dilution, Dako, Denmark) was added for 1 hour at 37° C. to detect the binding of the mAb to the phages. After 5 washings, the peroxidase activity was monitored by addition of the K-Blue® substrate (Neogen, Lexington, USA) at room temperature for 20 minutes. Reaction was stopped by addition of 25 μl of 2N H2SO4. Reading was performed at 450-630 nm. Each phage was coated in triplicate for testing with each mAb.
AERSLWYYP [Peptide 83] was tested, and the “Phage ELISA: positive with at least one mAb” value (“Phage ELISA: positive” below) was “positive”. In the case of “AITGVRARW (LOS peptide mimotope sequence) [Peptide 143]”, the “Phage ELISA: positive” value is reported as “positive”. “ARWYPISQT (LOS peptide mimotope sequence) [Peptide 124]” was tested, and the “Phage ELISA: positive” value was “positive”. With “CANSRPGGYLC (LOS peptide mimotope sequence) [Peptide 30]” the “Phage ELISA: positive” value was “positive”. “CAPPGIAVRTC (not fully specified (bridges); cysteine pairing not given here) [Peptide 115]” was tested, and the “Phage ELISA: positive” value was “positive”. With “CAPYSIFIGEC (not fully specified (bridges); cysteine pairing not given here) [Peptide 17]” the “Phage ELISA: positive” value was “positive”. With “CFARPFQGTWC (LOS peptide mimotope sequence) [Peptide 22]” the “Phage ELISA: positive” value was “positive”. “CFGLIAFHPDC (LOS peptide mimotope sequence) [Peptide 27]” was tested, and the “Phage ELISA: positive” value was “positive”. For “CHSVQPATRAC (LOS peptide mimotope sequence) [Peptide 131]”, the “Phage ELISA: positive” value was “positive”. In the case of “CIDAGSHGWLC (LOS peptide mimotope sequence) [Peptide 133]”, the “Phage ELISA: positive” value is reported as “positive”. In the case of “CISEYAKGTTC (LOS peptide mimotope sequence) [Peptide 13]”, the “Phage ELISA: positive” value is reported as “positive”. With “CLAASADTAAC (LOS peptide mimotope sequence) [Peptide 139]” the “Phage ELISA: positive” value was “positive”. For “CLWRPIDPFLC (LOS peptide mimotope sequence) [Peptide 82]”, the “Phage ELISA: positive” value was “positive”. “CPKAPFSPFKC (LOS peptide mimotope sequence) [Peptide 132]” was tested, and the “Phage ELISA: positive” value was “positive”. With “CPPPWSTHDC (LOS peptide mimotope sequence) [Peptide 141]” the “Phage ELISA: positive” value was “positive”. “CPYTSWAREGC (LOS peptide mimotope sequence) [Peptide 140]” was tested, and the “Phage ELISA: positive” value was “positive”. In the case of “CQPIGPPYDRC (LOS peptide mimotope sequence) [Peptide 28]”, the “Phage ELISA: positive” value is reported as “positive”. In the case of “CRFTYDPPFMC (LOS peptide mimotope sequence) [Peptide 51]”, the “Phage ELISA: positive” value is reported as “positive”. With “CRGLQGHIAYC (LOS peptide mimotope sequence) [Peptide 87]” the “Phage ELISA: positive” value was “positive”. With “CRPAFDPPYHC (LOS peptide mimotope sequence) [Peptide 54]” the “Phage ELISA: positive” value was “positive”. With “CSEPWSTSNC (LOS peptide mimotope sequence) [Peptide 142]” the “Phage ELISA: positive” value was “positive”. CSHAPPYDRVC [Peptide 14] was tested, and the “Phage ELISA: positive” value was “positive”. For “CSSLYYHGTAC (LOS peptide mimotope sequence) [Peptide 39]”, the “Phage ELISA: positive” value was “positive”. In the case of CSSYSYVHDSC [Peptide 50], the “Phage ELISA: positive” value is reported as “positive”. For CTANVYFGTYC [Peptide 29], the “Phage ELISA: positive” value was “positive”. For “CTHYSFYGDIC (LOS peptide mimotope sequence) [Peptide 66]”, the “Phage ELISA: positive” value was “positive”. “CTPLPDGGILC (LOS peptide mimotope sequence) [Peptide 103]” was tested, and the “Phage ELISA: positive” value was “positive”. For “CYPQLSHANPC (LOS peptide mimotope sequence) [Peptide 105]”, the “Phage ELISA: positive” value was “positive”. For “DSAPAVKSS (LOS peptide mimotope sequence) [Peptide 85]”, the “Phage ELISA: positive” value was “positive”. With “EKKHFNYGT (LOS peptide mimotope sequence) [Peptide 144]” the “Phage ELISA: positive” value was “positive”. In the case of “EKKRFESNT (LOS peptide mimotope sequence) [Peptide 145]”, the “Phage ELISA: positive” value is reported as “positive”. With “EQGYCTVNIEQCAKYR (LOS peptide mimotope sequence) [Peptide 146]” the “Phage ELISA: positive” value was “positive”. With “GPWHGPSSS (LOS peptide mimotope sequence) [Peptide 93]” the “Phage ELISA: positive” value was “positive”. In the case of “HGRTLWYTP (LOS peptide mimotope sequence) [Peptide 55]”, the “Phage ELISA: positive” value is reported as “positive”. With “LKWGDGSSA (LOS peptide mimotope sequence) [Peptide 104]” the “Phage ELISA: positive” value was “positive”. In the case of “NSPTSCKWLCNEKF (LOS peptide mimotope sequence) [Peptide 148]”, the “Phage ELISA: positive” value is reported as “positive”. With “PGWYDAHPT (LOS peptide mimotope sequence) [Peptide 86]” the “Phage ELISA: positive” value was “positive”. With “PLWYDPAPP (LOS peptide mimotope sequence) [Peptide 47]” the “Phage ELISA: positive” value was “positive”. PRPHFGAPP [Peptide 61] was tested, and the “Phage ELISA: positive” value was “positive”. “RGSEGSFAR (LOS peptide mimotope sequence) [Peptide 45]” was tested, and the “Phage ELISA: positive” value was “positive”. With “SNWYENTPT (LOS peptide mimotope sequence) [Peptide 58]” the “Phage ELISA: positive” value was “positive”. With “SPADCDYTTLCAKPT (LOS peptide mimotope sequence) [Peptide 147]” the “Phage ELISA: positive” value was “positive”. In the case of “SQWRSAAPT (LOS peptide mimotope sequence) [Peptide 53]”, the “Phage ELISA: positive” value is reported as “positive”. For “WYIAPRKTL (LOS peptide mimotope sequence) [Peptide 63]”, the “Phage ELISA: positive” value was “positive”. For “WYSAPENAL (LOS peptide mimotope sequence) [Peptide 88]”, the “Phage ELISA: positive” value was “positive”. “WYTTPTRPV (LOS peptide mimotope sequence) [Peptide 75]” was tested, and the “Phage ELISA: positive” value was “positive”.

The sequences below were run on mAb H44/58 (assay: SPOT peptide immunoblot, mAb H44/58). Settings: Membrane 1 (linear peptide).
Format: binding, mouse
Description: Another experiment for determining the best peptide candidates for immunisation trials is whether chemically synthesized peptides are recognized by at least one anti-MenB LOS mAb (and preferably not by irrelevant mAbs). This can be assessed on SPOT synthesized peptides (peptides synthesized directly on a cellulose membrane). This membrane can be tested with different mAbs by repetitive immunoblottings and chemiluminescent detection. Peptides may be synthesised with 3 residues originating from the pVIII protein sequence on each end of the peptide. Indeed, the primary structure of the peptides expressed in fusion with pVIII on the surface of the bacteriophage is as follows (x for any residue in the library):
For example linear peptides comprising peptide No. 61 from Table 2 (GEFPRPHFGAPPDPA) and peptide No. 83 (GEFAERSLWYYPDPA) were synthesised on one membrane, and cyclised peptides comprising peptide No. 50 from Table 2 (GEFCSSYSYVHDSCGDP), peptide 14 (GEFCSHAPPYDRVCGDP) and peptide 25 (GEFCRAPPYDTIMCGDP) were synthesised on another.
The protocol used to probe these membranes with mAbs was the one provided by Genosys, with some modifications, especially for the regeneration of membranes with cyclised peptides. […]
With AERSLWYYP [Peptide 83] the “SPOT recognition by mAb 58 (H44/58)” value was “recognized”.

Same assay, conditions: Membrane 2 (cyclic peptides), synthesised with pVIII flanking residues
With CRAPPYDTIMC [Peptide 25] the “SPOT recognition by mAb 58 (H44/58)” value was “positive”.

These sequences were tested on mAb H44/58 (assay: Phage-ELISA with mAb H44/58). Settings: peptide-on-phage.
Format: binding, mouse
Protocol: as §1
In the case of CRAPPYDTIMC [Peptide 25], the “Phage-ELISA result with mAb H44/58” value is reported as “positive”. For CSHAPPYDRVC [Peptide 14], the “Phage-ELISA result with mAb H44/58” value was “positive”.

From patent US20040047880A1, “Component for vaccine” (priority 2000, published 2004)
